Assays:
[1] = test system: Rattus norvegicus; test: Tested in vivo for dose required to inhibit PAF-induced hypotension in rat
[2] = test system: Cavia porcellus; test: Tested in vivo for dose required to inhibit PAF-induced bronchoconstriction in guinea pig; assay type: functional
[3] = species on record: Oryctolagus cuniculus; test: Concentration required to reduce 50% of maximum platelet aggregation caused by PAF in platelet rich plasma from rabbit in vitro; assay type: functional
[4] = test system: Rattus norvegicus; test: Tested in vivo for dose required to inhibit PAF-induced hypotension in rat; remark: listed apart in the source

| Compound | ED50 [1] | ED50 [2] | EC50 [3] | ED50 [4] |
| --- | --- | --- | --- | --- |
| C=C(COC(=O)CCCCC[n+]1ccccc1)COC(=O)NCCCCCCCCCCCCCCCCCC.[Br-] | 0.5 mg/kg | 0.2 mg/kg | 500 nM |  |
| C=C(COC(=O)CCCCCC[n+]1ccsc1)COC(=O)NCCCCCCCCCCCCCCCCCC.[Br-] |  | 0.1 mg/kg | 250 nM | 0.5 mg/kg |
